Results reported in patent US20140294745A1, “CORAL EXTRACT FOR SKIN WHITENING, MOISTURE RETENTION, ELASTICITY IMPROVEMENT, ANTI-INFLAMMATION AND OCCLUSION OF WOUNDS AND EXTRACTING METHOD THEREOF” (UNI-PRESIDENT BIOTECH CO., LTD., priority 2013, published 2014).

Assays:
[1] = test system: zebra fishes (AB strain Danio rerio); assay: Whitening activity analysis in vivo (zebra fish melanin); settings: 20 mM; immersed forty-eight hours
Description: The test uses zebra fishes (AB strain Danio rerio), in which fish edge is above four months, as test brood fishes, and the fishes are bred in an acrylic water tank having a filter and a circulation system. Water temperature is controlled at 28.5 degrees Celsius, and light-dark cycle is respectively controlled at fourteen and ten hours.
The medicine to be tested must be dissolved in 100% DMSO solution, and finally concentration must also concern DMSO and medicine concentration.
Embryos that have been fertilized for nine hours is taken and injected into a 96 well culture dish, and three embryos and 100 μl Hank's buffer are disposed in each well. 100 μl taken from the prepared medicine is injected into each well, and after adequately and uniformly mixing the mixture, an orifice plate is covered to avoid draining water content away to change the concentration. […]
Obtained fish images are opened by image processing software (Image J 1.43 g; National Institute of Health, Bethesda, Md., U.S.A.), and under ranges where the minimum threshold is set at 0, and where the maximum threshold is set at 85, melanin of each group of zebra fishes is performed with quantitative analysis.

[2] = test system: Mushroom tyrosinase; assay: Mushroom tyrosinase inhibition capability analysis; format: biochemical; settings: positive control, 100 μM
Description: In a 96 well plate, 70 μl PBS, 20 μl specimen solution having different concentrations is added into each pore, and the mixture is uniformly mixed. Next, 10 μl 12U tyrosinase is added to place the plate in the cultivation chest at 37 degrees Celsius to react for thirty minutes. 10 μl 15 mM L-dopa is further added, and after continuously placing the plate in the cultivation chest to react for thirty minutes, the variance of absorbance is measured at 492 nm wavelengths. By taking H2O or 50% EtOH as the control group, the anti-oxidation rate of the object to be tested is obtained by inhibition of tyrosinase % (IT %) as the following formula. When peroxidation rate of lipid inhibition is higher, antioxidative function is stronger. Inhibition of tyrosinase %, IT %=[1−(absorbance of sample at 492 nm)/(absorbance of the control group that is not added with samples at 492 nm)]×100.

Row | SMILES | melanin content of zebra fishes [1] [%] | Mushroom tyrosinase inhibition capability [2] [%]
1 | OC[C@H]1O[C@@H](Oc2ccc(O)cc2)[C@H](O)[C@@H](O)[C@@H]1O [arbutin] | 50 | –
2 | O=C1O[C@H]([C@@H](O)CO)C(O)=C1O [vitamin C] | – | 38.0 ± 0.4
